According to patent US7732618B2, “Benzimidazole acetic acids exhibiting CRTH2 receptor antagonism and uses thereof” (Wyeth, priority 2004, dated 2010):

Assays:
human CRTH2 [1] = molecular target: T1, human CRTH2 (Homo sapiens, UniProt Q9Y5Y4); test: CRTH-2 binding assay (scintillation proximity assay, inhibition of 3H-PGD2 binding); parameters: expressed in transfected cells; host or cells: 293EBNA-hCRTH2 cells (membrane preparation); settings: membranes from 293EBNA-hCRTH2 cells, 3H-PGD2 3.6 nM; Ki calculated from IC50
T1 sequence (Q9Y5Y4 1-395): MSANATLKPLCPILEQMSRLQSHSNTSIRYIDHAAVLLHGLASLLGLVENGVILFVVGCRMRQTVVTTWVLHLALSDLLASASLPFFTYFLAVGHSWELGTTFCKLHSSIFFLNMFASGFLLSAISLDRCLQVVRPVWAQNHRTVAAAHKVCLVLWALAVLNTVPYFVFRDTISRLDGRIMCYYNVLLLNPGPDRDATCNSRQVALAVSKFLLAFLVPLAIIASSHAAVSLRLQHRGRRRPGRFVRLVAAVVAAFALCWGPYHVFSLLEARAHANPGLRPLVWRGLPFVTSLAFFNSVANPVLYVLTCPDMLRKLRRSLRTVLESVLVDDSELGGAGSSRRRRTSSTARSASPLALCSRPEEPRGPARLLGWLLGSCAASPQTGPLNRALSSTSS
Procedure: A CRTH2 binding assay was developed to measure the ability of compounds to inhibit the binding of PGD2 to human CRTH2 using a scintillation proximity assay.
Membranes containing hCRTH2 receptors were prepared from 293EBNA-hCRTH2 cells (a 293EBNA cell line stably expressing human CRTH2). The cells were grown to confluency, harvested and washed with PBS. The cells were resuspended in 10 mM Hepes pH 7.4, 1 mM EDTA and protease inhibitors and incubated for 30 min on ice. The cells were homogenized and centrifuged for 10 min at 1000×g. The supernate was centrifuged for 30 min at 100,000×g and the membrane pellet was then resuspended in 10 mM Hepes pH 7.4 and 1 mM EDTA. The protein concentration of the membrane preparation was determined by Bradford assay (Bio-Rad).
The ability of compounds to inhibit the interaction of PGD2 to human CRTH2 was determined at seven compound concentrations. Compounds were serially diluted in DMSO then diluted into CRTH2 buffer (10 mM Hepes pH 7.4, 1 mM EDTA, 10 mM MnCl2) to six times the final desired concentration. 20 μL of the diluted compounds were transferred into non-surface binding 96-well plates (Corning). Each concentration was done in triplicate. In addition to test compounds, each plate contained 12 control wells. Six of these wells contained 20 μL of CRTH2 buffer. These wells were used to measure total binding. Six wells contained 20 μL of CRTH2 buffer plus 1.5 mM indomethacin. These wells were used to measure non-specific binding. Next, 293EBNA-hCRTH2 membranes were resuspended in CRTH2 buffer with glycerol (10 mM Hepes pH 7.4, 1 mM EDTA, 10 mM MnCl2, 25% glycerol) so that the final concentration was approximately 20 μg/100 μL. Polylysine-coated yttrium silicate SPA beads (Amersham) were added to the membrane mix to a concentration of 0.4 mg/100 μL and finally ^3H-PGD2 was added to the membrane/SPA bead mix to 3.6 nM. 100 μL of the membrane/SPA bead/^3H-PGD2 mix was added to each well of the non-surface binding plates containing the diluted compound or controls. The plates were incubated for 2 hours at room temperature with shaking and then the plates were counted on a Microbeta scintillation counter (Perkin Elmer) for 1 min per well.
IC50 values were determined from the experimental results by nonlinear regression using Prism 4.0 software. The IC50 values were then used in conjunction with the Kd for hCRTH2 and the ^3H-PGD2 concentration used in the experiment to calculate the Ki for each compound.

human CRTH2 [2] = molecular target: T1, human CRTH2; test: CRTH2 fluorescent imaging assay (intracellular calcium); type: cell-based; parameters: expressed in transfected cells; host or cells: HEK 293EBNA-hCRTH2 cells or HT1080-hCRTH2 cells; settings: for IC50: antagonism of PGD2-induced calcium increase, HEK 293EBNA-hCRTH2 or HT1080-hCRTH2 cells, read-out: RAGE hCRTH2 IC50; for approximate EC75 for PGD2: calcium response
Procedure: The ability of the disclosed compounds to act as agonists for the hCRTH2 receptor was determined by their ability to cause increases in intracellular calcium via binding to the CRTH2 receptor.
Assays were performed on HEK 293EBNA-hCRTH2 cells that had been grown in DMEM media containing 10% FBS, […] puromycin and 1% penicillin/streptomycin/glutamine (PSG) at 37° C. in 5% CO2 or on HT1080-hCRTH2 cells (a HT1080 cell line stably expressing human CRTH2) that had been grown in alphaMEM media containing 10% FBS, 500 μg/ml hygromycin, 200 nM methotrexate and 1% PSG at 37° C. in 5% CO2.
For the assay, HEK 293EBNA-hCRTH2 cells or HT1080-hCRTH2 cells were grown to approximately 90% confluency and then dislodged from the plate with Trypsin-EDTA, resuspended in DMEM media, seeded in 384 well plates at 2×10^4 cells per well and incubated overnight at 37° C. The cells were loaded with a calcium sensing dye by removing the growth media and replacing it with 30 μL of dye loading Ringer's buffer (136 mM […], 5.4 mM D-Glucose, 20 mM Hepes pH 7.4, 2.1 mM MgCl2, 0.8 mM CaCl2, 0.2% BSA with 1× Calcium3Dye (Molecular Devices) and 2.5 mM Probenecid (Sigma)) per well. The cells were incubated at 37° C. for 1 hour to allow the dye to enter the cells. Compounds were serially diluted in DMSO and then diluted to 4× their final concentration with Ringer's buffer. The compounds were added to a 384 well plate in quadruplicate. In addition to test compounds, several wells contained Ringer's buffer with DMSO. These wells serve as control wells. 10 μL was transferred from compound/control plate to the plate containing cells loaded with dye by a fluorescent imaging plate reader (Molecular Devices). The fluorescence was measured every 4 seconds for 4 minutes. These measurements indicated the level of intracellular calcium. Increases in fluorescence relative to wells containing buffer only indicated an agonist effect of the compound. Measurement at various compound concentrations allowed one to determine the EC50 for these compounds. Following the 4 minute incubation with compound, 20 μL of Ringer's buffer with either 10 nM or 500 nM PGD2 (approximate EC75 for PGD2 in HEK 293EBNA-hCRTH2 cells and HT1080-hCRTH2 cells, respectively) was added to the wells. Inhibition by the compounds of the calcium response due to antagonism of PGD2 action on CRTH2 is reflected by a decrease in fluorescent signal relative to wells containing no compound. The fluorescence was measured every 2 seconds for 10 seconds before addition of PGD2 and every 2 seconds for 110 seconds following addition. Measurement at various compound concentrations allowed one to determine the IC50 for the compounds. EC50 and IC50 values were determined from the experimental results by nonlinear regression using the Prism 4.0 software.

Compound	Ki (human CRTH2 [1]) [nM]	IC50 (human CRTH2 [2]) [nM]	approximate EC75 for PGD2 (human CRTH2 [2]; HEK 293EBNA-hCRTH2 cells) [nM]	approximate EC75 for PGD2 (human CRTH2 [2]; HT1080-hCRTH2 cells) [nM]
CCCc1nc2cc(N(Cc3ccc(Cl)cc3)S(=O)(=O)c3ccc(F)cc3)ccc2n1CC(=O)O [Example 43, {5-[(4-Chloro-benzyl)-(4-fluoro-benzenesulfonyl)-amino]-2-propyl-benzoimidazol-1-yl}-acetic acid]	< 100	51	–	–
CCCc1nc2cc(N(C3CCCCC3)S(=O)(=O)c3ccc(F)cc3)ccc2n1CC(=O)O [Example 46, {5-[(Cyclohexyl)-(4-fluoro-benzenesulfonyl)-amino]-2-propyl-benzoimidazol-1-yl}-acetic acid]	< 1000	375	–	–
CCCc1nc2cc(N(CCOc3ccc(Cl)cc3)S(=O)(=O)c3ccc(F)cc3)ccc2n1CC(=O)O [Example 47, {5-[[2-(4-Chloro-phenoxy)-ethyl]-(4-fluoro-benzenesulfonyl)-amino]-2-propyl-benzoimidazol-1-yl}-acetic acid]	< 100	22	–	–
CCCc1nc2cc(N(CCCOc3ccccc3)S(=O)(=O)c3ccc(F)cc3)ccc2n1CC(=O)O [Example 49, {5-[(4-Fluoro-benzenesulfonyl)-(3-phenoxy-propyl)-amino]-2-propyl-benzoimidazol-1-yl}-acetic acid]	< 100	47	–	–
CCCc1nc2cc(N(Cc3ccccc3)C(=O)c3cccc(Cl)c3)ccc2n1CC(=O)O [Example 62, {5-[Benzyl-(3-chloro-benzoyl)-amino]-2-propyl-benzoimidazol-1-yl}-acetic acid]	< 1000	–	–	–
CCCc1nc2cc(N(Cc3ccccc3)C(=O)c3ccc(Cl)cc3)ccc2n1CC(=O)O [Example 63, {5-[Benzyl-(4-chloro-benzoyl)-amino]-2-propyl-benzoimidazol-1-yl}-acetic acid]	< 1000	–	–	–
CCCc1nc2cc(N(Cc3ccccc3)C(=O)c3ccccc3F)ccc2n1CC(=O)O [Example 64, {5-[Benzyl-(2-fluoro-benzoyl)-amino]-2-propyl-benzoimidazol-1-yl}-acetic acid]	> 10000	–	–	–
CCCc1nc2cc(N(Cc3ccccc3)C(=O)c3cccc(F)c3)ccc2n1CC(=O)O [Example 65, {5-[Benzyl-(3-fluoro-benzoyl)-amino]-2-propyl-benzoimidazol-1-yl}-acetic acid]	< 10000	–	–	–
CCCc1nc2cc(N(Cc3ccccc3)C(=O)c3ccc(F)cc3)ccc2n1CC(=O)O [Example 66, {5-[Benzyl-(4-fluoro-benzoyl)-amino]-2-propyl-benzoimidazol-1-yl}-acetic acid]	< 1000	–	–	–
CCCc1nc2cc(N(Cc3ccccc3)C(=O)c3ccc(F)c(F)c3)ccc2n1CC(=O)O [Example 67, {5-[Benzyl-(3,4-difluoro-benzoyl)-amino]-2-propyl-benzoimidazol-1-yl}-acetic acid]	< 1000	–	–	–
CCCc1nc2cc(N(Cc3ccccc3)C(=O)c3c(F)cccc3F)ccc2n1CC(=O)O [Example 68, {5-[Benzyl-(2,6-difluoro-benzoyl)-amino]-2-propyl-benzoimidazol-1-yl}-acetic acid]	< 10000	–	–	–
CCCc1nc2cc(N(Cc3ccccc3)C(=O)c3sccc3C)ccc2n1CC(=O)O [Example 69, {5-[Benzyl-(3-methyl-thiophene-2-carbonyl)-amino]-2-propyl-benzoimidazol-1-yl}-acetic acid]	< 100	–	–	–
CCCc1nc2cc(N(Cc3ccccc3)C(=O)c3cccs3)ccc2n1CC(=O)O [Example 70, {5-[Benzyl-(thiophene-2-carbonyl)-amino]-2-propyl-benzoimidazol-1-yl}-acetic acid]	< 100	7	–	–
CCCCC[C@H](O)/C=C/[C@H]1C(=O)C[C@H](O)[C@@H]1C/C=C\CCCC(=O)O [PGD2, prostaglandin D2, reference compound]	–	–	~10	~500
